Marks after values point to notes of the source that are not given here.
Tests used:
Format in all cases: in vivo, human
Adverse events = settings: schedule B
[1] = QTcF interval, triplicate 12-lead ECG; settings: for maximal mean change (±s.d.) from baseline in QTcF: 2 h post-administration, first two courses
Plasma pharmacokinetics = settings: for clearance / AUC(0-inf) / MRT / Vd: human, plasma, iv; for AUC0–∞,norm / Cmax,norm / AUC0–168,norm: gMean, dose normalised
[2] = 200 mg (n=3), irrespective of relatedness
[3] = total (n=27), irrespective of relatedness
[4] = schedule A, 100 mg (n=3), first 2-h i.v. infusion
[5] = schedule A, 200 mg (n=3), first 2-h i.v. infusion
[6] = schedule A, 250 mg (n=5), first 2-h i.v. infusion
[7] = schedule A, 300 mg (n=16), first 2-h i.v. infusion

## CC[C@@H]1C(=O)N(C)c2cnc(Nc3ccc(C(=O)N[C@H]4CC[C@H](N5CCN(CC6CC6)CC5)CC4)cc3OC)nc2N1C(C)C [volasertib]
Adverse events; 150 mg (n=16), irrespective of relatedness
  Vomiting grade 3, number of patients: 1 n
Adverse events; [2]
  Abdominal distension grade 3, number of patients: 1 n
  Anaemia grade 3, number of patients: 2 n
  Decreased appetite grade 3, number of patients: 1 n
  Fatigue grade 3, number of patients: 1 n
  Febrile neutropenia grade 3, number of patients: 1 n
  Hypokalaemia grade 3, number of patients: 1 n
  Ileus grade 3, number of patients: 2 n
  Infection grade 3, number of patients: 1 n
  Leukopenia grade 4, number of patients: 1 n
  Neutropenia grade 4, number of patients: 2 n
  Thrombocytopenia grade 3, number of patients: 2 n
  Upper GI haemorrhage grade 3, number of patients: 1 n
Adverse events; all doses
  drug-related anaemia, incidence: 18.5%
  drug-related leukopenia, incidence: 33.3%
  drug-related neutropenia, incidence: 33.3%
  drug-related thrombocytopenia, incidence: 14.8%
Adverse events; [3]
  Abdominal distension grade 3, number of patients: 1 (3.7) n (%)
  Abdominal pain grade 3, number of patients: 2 (7.4) n (%)
  Anaemia grade 3, number of patients: 4 (14.8) n (%)
  Anaemia grade 4, number of patients: 2 (7.4) n (%)
  Decreased appetite grade 3, number of patients: 1 (3.7) n (%)
  Dizziness grade 3, number of patients: 1 (3.7) n (%)
  Dyspnoea grade 3, number of patients: 1 (3.7) n (%)
  Fatigue grade 3, number of patients: 2 (7.4) n (%)
  Febrile neutropenia grade 3, number of patients: 1 (3.7) n (%)
  Hypokalaemia grade 3, number of patients: 2 (7.4) n (%)
  Ileus grade 3, number of patients: 2 (7.4) n (%)
  Infection grade 3, number of patients: 2 (7.4) n (%)
  Leukopenia grade 3, number of patients: 1 (3.7) n (%)
  Leukopenia grade 4, number of patients: 1 (3.7) n (%)
  Neutropenia grade 3, number of patients: 2 (7.4) n (%)
  Neutropenia grade 4, number of patients: 3 (11.1) n (%)
  Pain grade 3, number of patients: 2 (7.4) n (%)
  Rash grade 3, number of patients: 1 (3.7) n (%)
  Thrombocytopenia grade 3, number of patients: 2 (7.4) n (%)
  Upper GI haemorrhage grade 3, number of patients: 2 (7.4) n (%)
  Vomiting grade 3, number of patients: 1 (3.7) n (%)
[1]; first course
  QTcF at 8-h post-dose assessment: returned to baseline levels
[1]; in vivo
  clinically relevant cardiac AEs related to a prolonged QT interval: No related clinically relevant cardiac AEs
[1]; schedule A, 300 mg
  maximal mean change (±s.d.) from baseline in QTcF: 21.0 (±10.6) ms
[1]; schedule B, 150 mg
  maximal mean change (±s.d.) from baseline in QTcF: 14.9 (±11.7) ms
Plasma pharmacokinetics; 2-h i.v. infusion, summary across doses
  apparent terminal half-life (t1/2): 135 h
Plasma pharmacokinetics
  clearance: > 770 mL/min
Plasma pharmacokinetics; 100 mg
  AUC(0-inf): 2140 ng·h/mL
  MRT: 163 h
  Vd: 7600 L
  clearance: 780 mL/min
Plasma pharmacokinetics; 200 mg
  AUC(0-inf): 3280 ng·h/mL
  MRT: 98.2 h
  Vd: 5980 L
  clearance: 1020 mL/min
Plasma pharmacokinetics; 250 mg
  AUC(0-inf): 6140 ng·h/mL
  MRT: 109 h
  Vd: 4440 L
  clearance: 679 mL/min
Plasma pharmacokinetics; 300 mg
  AUC(0-inf): 6260 ng·h/mL
  MRT: 103 h
  Vd: 4920 L
  clearance: 798 mL/min
Plasma pharmacokinetics; 350 mg
  AUC(0-inf): 9790 ng·h/mL
  MRT: 93 h
  Vd: 3320 L
  clearance: 596 mL/min
Plasma pharmacokinetics; low exposures of main metabolite, data not shown
  elimination route: primarily eliminated unchanged
Plasma pharmacokinetics; [4]
  AUC0–∞,norm: 21.4 ng·h/mL/mg
  Cmax,norm: 1.86 ng/mL/mg
Plasma pharmacokinetics; [5]
  AUC0–∞,norm: 16.4 ng·h/mL/mg
  Cmax,norm: 2.70 ng/mL/mg
Plasma pharmacokinetics; [6]
  AUC0–∞,norm: 24.6 ng·h/mL/mg
  Cmax,norm: 2.16 ng/mL/mg
Plasma pharmacokinetics; [7]
  AUC0–∞,norm: 20.9 ng·h/mL/mg
  Cmax,norm: 1.63 ng/mL/mg
Plasma pharmacokinetics; schedule A, 350 mg (n=2), first 2-h i.v. infusion
  AUC0–∞,norm: 28.0 ^a (ng h ml^−1) mg^−1
Plasma pharmacokinetics; schedule A, 350 mg (n=3), first 2-h i.v. infusion
  Cmax,norm: 1.93 ng/mL/mg
Plasma pharmacokinetics; schedule B, 50 mg (n=3), first 2-h i.v. infusion
  AUC0–168,norm: 11.8 ^b (ng h ml^−1) mg^−1
Plasma pharmacokinetics; schedule B, 50 mg (n=4), first 2-h i.v. infusion
  Cmax,norm: 2.12 ng/mL/mg
Plasma pharmacokinetics; schedule B, 100 mg (n=3), first 2-h i.v. infusion
  Cmax,norm: 2.34 ng/mL/mg
Plasma pharmacokinetics; schedule B, 100 mg, first 2-h i.v. infusion, n=2, individual values
  AUC0–168: 1390 ng·h/mL
Plasma pharmacokinetics; schedule B, 150 mg (n=14), first 2-h i.v. infusion
  AUC0–168,norm: 12.6 ^d (ng h ml^−1) mg^−1
Plasma pharmacokinetics; schedule B, 150 mg (n=15), first 2-h i.v. infusion
  Cmax,norm: 1.56 ng/mL/mg
Plasma pharmacokinetics; schedule B, 200 mg (n=2), first 2-h i.v. infusion
  AUC0–168,norm: 16.6 ^a (ng h ml^−1) mg^−1
Plasma pharmacokinetics; schedule B, 200 mg (n=3), first 2-h i.v. infusion
  Cmax,norm: 2.05 ng/mL/mg
Plasma pharmacokinetics; schedule B, administration on day 1 and day 8
  accumulation: No accumulation

— paper PMC4021529 (British Journal of Cancer, 2014)
